The source of these data is ChEMBL document CHEMBL6103599, “Design of Potent Menin-KMT2A Interaction Inhibitors with Improved In Vitro ADME Properties and Reduced hERG Affinity” (ACS Med Chem Lett, 2025).

Series [1] can be described thus: Inhibition of His6-tagged MEN1 458-551 deletion A5T mutant (2 to 583 residues)/MLL (unknown origin) transfected in Escherichia coli BL21 (DE3) protein-protein interaction by TR-FRET assay. Also noted: species or system Homo sapiens. In general terms: Time-resolved FRET reads energy transfer from a long-lived donor to a nearby acceptor.
The next series relates to MV4-11. The experiment in a line: Antiproliferative activity against human MV4-11 cells assessed as cell growth inhibition measured after 7 days by CellTiter-Glo assay. To be noted: MV4-11, 168 h. It is filed as functional, cell-based.
The target of series [2] is Voltage-gated inwardly rectifying potassium channel KCNH2 (Homo sapiens, UniProt Q12809). The experiment in a line: Inhibition of hERG expressed in CHO cells. It is filed as toxicity, cell-based. A general note: Block of hERG is tested as a sign of cardiac risk.
Voltage-gated inwardly rectifying potassium channel KCNH2, sequence (Q12809 whole entry): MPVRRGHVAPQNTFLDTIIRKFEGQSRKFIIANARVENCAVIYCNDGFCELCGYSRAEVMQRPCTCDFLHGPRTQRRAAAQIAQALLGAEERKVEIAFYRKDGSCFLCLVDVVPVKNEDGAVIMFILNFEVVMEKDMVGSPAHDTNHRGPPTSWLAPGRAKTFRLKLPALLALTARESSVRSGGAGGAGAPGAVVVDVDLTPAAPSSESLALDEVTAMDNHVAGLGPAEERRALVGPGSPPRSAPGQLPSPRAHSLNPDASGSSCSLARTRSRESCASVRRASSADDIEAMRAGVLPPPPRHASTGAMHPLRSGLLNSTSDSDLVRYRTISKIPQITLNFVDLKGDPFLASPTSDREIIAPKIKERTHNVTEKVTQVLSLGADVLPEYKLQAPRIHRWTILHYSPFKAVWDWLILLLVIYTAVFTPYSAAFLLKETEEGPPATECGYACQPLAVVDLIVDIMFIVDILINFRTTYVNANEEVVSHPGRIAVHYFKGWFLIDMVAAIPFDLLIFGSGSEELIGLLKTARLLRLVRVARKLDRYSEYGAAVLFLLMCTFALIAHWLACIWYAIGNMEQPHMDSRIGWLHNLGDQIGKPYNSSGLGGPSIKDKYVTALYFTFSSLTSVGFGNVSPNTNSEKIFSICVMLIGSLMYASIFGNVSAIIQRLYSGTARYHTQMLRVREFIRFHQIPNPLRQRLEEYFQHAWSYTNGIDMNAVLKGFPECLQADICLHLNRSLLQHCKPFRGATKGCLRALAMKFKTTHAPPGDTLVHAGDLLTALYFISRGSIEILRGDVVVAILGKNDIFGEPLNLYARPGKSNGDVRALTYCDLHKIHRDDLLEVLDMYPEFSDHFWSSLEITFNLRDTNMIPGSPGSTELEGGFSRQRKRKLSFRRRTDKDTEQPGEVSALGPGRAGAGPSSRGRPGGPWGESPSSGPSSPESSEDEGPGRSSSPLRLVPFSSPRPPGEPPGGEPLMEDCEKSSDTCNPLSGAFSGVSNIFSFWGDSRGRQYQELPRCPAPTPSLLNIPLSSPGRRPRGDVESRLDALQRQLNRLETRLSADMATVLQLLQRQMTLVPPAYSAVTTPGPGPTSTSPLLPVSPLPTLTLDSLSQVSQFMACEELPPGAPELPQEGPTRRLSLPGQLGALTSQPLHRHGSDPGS
Series [3] in a line: Metabolic stability in human hepatocytes assessed as clearance by LC-MS analysis. It is filed as ADME, cell-based, Hepatocyte. To be noted: read-out: CLH.
Series [4] can be described thus: Apparent permeability across apical to basolateral side in MDR1 knockout dog MDCKII cells incubated for 2 hrs by LC-MS/MS analysis. To be noted: MDCK. It is filed as ADME, cell-based, Canis lupus familiaris, MDCK-II.
Series [5] can be described thus: AUCinfinity in male CD-1 mouse at 1 mg/kg, iv measured after 8 hrs by LC-MS/MS analysis. Format: ADME, organism-based. To be noted: in vivo.
Series [6] is described as follows: Clearance in male CD-1 mouse at 1 mg/kg, iv measured after 8 hrs by LC-MS/MS analysis. Format: ADME, organism-based. To be noted: in vivo.
Series [7] in a line: Half life in male CD-1 mouse at 1 mg/kg, iv measured after 8 hrs by LC-MS/MS analysis. It is filed as ADME, organism-based. To be noted: in vivo.
Series [8] in a line: Volume of distribution at steady state in male CD-1 mouse at 1 mg/kg, iv measured after 8 hrs by LC-MS/MS analysis. Format: ADME, organism-based. To be noted: in vivo, read-out: Vdss.
Series [9] in a line: Cmax in male CD-1 mouse at 30 mg/kg, po measured after 8 hrs by LC-MS/MS analysis. Format: ADME, organism-based. To be noted: in vivo.
Series [10] in a line: Oral bioavailability in male CD-1 mouse at 30 mg/kg measured after 8 hrs by LC-MS/MS analysis. To be noted: in vivo. Format: ADME, organism-based.
Series [11] is described as follows: Hepatic extraction ratio in male CD-1 mouse at 1 mg/kg, iv measured after 8 hrs by LC-MS/MS analysis. To be noted: in vivo, read-out: ERH. Format: ADME, organism-based.
Series [12] is described as follows: Drug excretion in male Sprague-Dawley rat urine at 3 mg/kg, iv measured after 8 hrs by LC-MS/MS analysis. It is filed as ADME, organism-based. To be noted: read-out: Drug excretion.
In the next series the target is Cytochrome P450 3A4 (Homo sapiens, UniProt P08684). The experiment in a line: Inhibition of CYP3A4 (unknown origin) using midazolam as substrate. Format: ADME.
Cytochrome P450 3A4, sequence (P08684 whole entry): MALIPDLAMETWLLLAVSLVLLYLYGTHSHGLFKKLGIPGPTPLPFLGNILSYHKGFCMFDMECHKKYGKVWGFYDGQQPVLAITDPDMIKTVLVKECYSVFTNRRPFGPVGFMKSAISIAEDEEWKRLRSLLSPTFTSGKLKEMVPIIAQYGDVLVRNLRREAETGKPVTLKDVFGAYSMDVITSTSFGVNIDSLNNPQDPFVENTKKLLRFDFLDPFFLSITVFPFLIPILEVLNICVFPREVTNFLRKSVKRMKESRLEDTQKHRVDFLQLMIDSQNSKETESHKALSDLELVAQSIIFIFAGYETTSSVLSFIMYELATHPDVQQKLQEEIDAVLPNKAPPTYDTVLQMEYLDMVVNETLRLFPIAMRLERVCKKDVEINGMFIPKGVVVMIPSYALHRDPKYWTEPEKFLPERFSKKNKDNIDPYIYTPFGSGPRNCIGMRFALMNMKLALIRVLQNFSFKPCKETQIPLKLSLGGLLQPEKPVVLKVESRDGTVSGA

For orientation: IC50 means the point on the concentration scale where inhibition reaches its midpoint. One may read the Papp A→B as the apparent permeability from the apical to the basolateral side of a cell layer. What is called AUC(0-inf) is total exposure, with the tail of the curve extrapolated. Higher therefore signals high exposure. A word on the clearance: it is the rate of elimination divided by the concentration. In general, half-life refers to the time in which the quantity being followed falls by half. A lower half-life goes with fast loss. In general, Cmax refers to the maximum level reached in the sampled fluid or tissue. The bioavailability is the share of a dose that reaches the circulation, judged against a reference dose that is usually intravenous. A higher bioavailability goes with much systemic uptake. As for `CC1(CN2CCC3(CC2)CN(c2ncnnc2Oc2ccc(F)cc2C(=O)N2C4CCC2COC4)C3)CC1`, the IC50 in [1] is 8 nM; in the series on MV4-11 it was 74 nM; in series [2] it was 65000 nM; on Cytochrome P450 3A4, over 50000 nM. Further, in series [3], the CLint scaled worked out at 5 mL/min/kg. Besides, in series [4], the Papp A→B at 2 h was 3 ×10⁻⁶ cm/s. For the same molecule, the AUC(0-inf) in series [5] is 342 ng·h/mL. Moreover, the clearance in series [6] was 48.7 mL/min/kg. The molecule also showed a half-life in [7] of 1.68 h. The Vd in series [8] came out at 4.34 L/kg. Besides, in series [9], the peak level (Cmax) was 5000 ng/mL. This molecule also showed a bioavailability in [10] of 74%. Besides, the hepatic extraction ratio at 8 h in series [11] was found to be 0.541. Besides, the dose excreted at 8 h in [12] amounted to 22%.
